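Interpolation was linear, between the two tested concentrations surrounding the appropriate level; five concentrations were tested over 48 hours in 96-well plates. GI50 = concentration required for 50% inhibition of growth.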 The source made the active and inactive calls. No stated cut-off is given here; in the data, active = GI50 up to about 1.1 µM and inactive = higher.

The values below come from ChEMBL document CHEMBL1201862, “PubChem BioAssay data set” (2004).

Some test systems named below: HCC 2998; SK-MEL-5; MCF7; SR; OVCAR-3; HL-60; SK-OV-3; NCI/ADR-RES; SF-539; MDA-N; RXF 393; T47D; CCRF-CEM; SK-MEL-28; Malme-3M; Hs-578T; NCI-H226; PC-3; TK-10; UO-31.
Assay in all cases: DTP human tumour cell line panel, 48 h

The GI50 is the concentration at which growth is held to half of that of the control. Turning to `COc1cc(C)c2c(c1C=O)Oc1c(c(C)c(O)c3c1C(O)OC3=O)OC2=O` (stereo not given) [STICTIC ACID], the GI50 with HCC 2998 is 20.2 µM (inactive); in the test on SK-MEL-5, 20.2 µM (inactive); in the test on MCF7, 22.4 µM (inactive); with SR, 16 µM (inactive); with OVCAR-3, 32.5 µM (inactive); in the test with HL-60, 23.3 µM (inactive). The GI50 in the test with SK-OV-3 is 49.5 µM (inactive); in the test on NCI/ADR-RES it was 37.2 µM (inactive); in the test with SF-539 it was 31.5 µM (inactive); with MDA-N, 17.5 µM (inactive); in the test with RXF 393, 32.5 µM (inactive); in the test with T47D, 17.6 µM (inactive). The GI50 in the test with CCRF-CEM was > 10 µM (inactive); in the test on SK-MEL-28 it was > 100 µM (inactive); with Malme-3M it was 20.7 µM (inactive); with Hs-578T, 36.8 µM (inactive); in the test on NCI-H226, 37.6 µM (inactive); in the test with PC-3, 34.4 µM (inactive). The GI50 with TK-10 was > 100 µM (inactive); in the test with UO-31, 29.1 µM (inactive).

Regarding `CN(NC(=O)c1ccco1)C1=NCCN1`, the GI50 in the test on HCC 2998, with SK-MEL-5, in the test on MCF7, in the test with SR, with OVCAR-3 and in the test on HL-60 was > 100 µM (inactive) throughout. For the same compound, the GI50 with SK-OV-3, with NCI/ADR-RES, with SF-539, with MDA-N, with RXF 393 and in the test with T47D was > 100 µM (inactive) each time. Further, the GI50 in the test on CCRF-CEM, with SK-MEL-28, in the test with Malme-3M, in the test with Hs-578T, in the test on NCI-H226 and in the test with PC-3 was > 100 µM (inactive) each time. The GI50 in the test with TK-10 and in the test on UO-31 was > 100 µM (inactive) throughout.

For the compound `CC(=O)OC12c3ccccc3-c3ccccc3C1C1C(=O)OC(=O)C12` (stereo not given), the GI50 in the test with HCC 2998, in the test with SK-MEL-5, in the test on MCF7, in the test with SR, in the test with OVCAR-3 and with HL-60 was > 10 µM (inactive) throughout. The GI50 in the test with SK-OV-3, in the test on NCI/ADR-RES, with SF-539, in the test on MDA-N, in the test on RXF 393 and in the test with T47D was > 10 µM (inactive) in each case. Moreover, the GI50 in the test with CCRF-CEM, with SK-MEL-28, in the test with Malme-3M, with Hs-578T, in the test on NCI-H226 and in the test with PC-3 was > 10 µM (inactive) throughout. For the same compound, the GI50 with TK-10 and with UO-31 was > 10 µM (inactive) each time.

Turning to `Cn1nnc2c(C(N)=S)ncn2c1=O`, the GI50 in the test with HCC 2998, with SK-MEL-5, in the test on MCF7, with SR, in the test with OVCAR-3 and with HL-60 was > 100 µM (inactive) each time. The GI50 with SK-OV-3, with NCI/ADR-RES, in the test on SF-539, with MDA-N, in the test on RXF 393 and in the test with T47D was > 100 µM (inactive) throughout. Further, the GI50 in the test on CCRF-CEM, with SK-MEL-28, in the test with Malme-3M, in the test on Hs-578T, with NCI-H226 and with PC-3 was > 100 µM (inactive) in each case. The GI50 in the test on TK-10 and in the test with UO-31 was > 100 µM (inactive) throughout.

In the case of `COC(=O)c1cc(C#N)[nH]c1-c1cc(Br)cs1`, the GI50 with HCC 2998 is > 41.7 µM (inactive); in the test on SK-MEL-5 it was 7.73 µM (inactive); in the test on MCF7, 7.24 µM (inactive); in the test on SR, 24.9 µM (inactive); in the test on OVCAR-3, 4.78 µM (inactive); in the test with HL-60, 13.2 µM (inactive). The GI50 with SK-OV-3 was 13.4 µM (inactive); with NCI/ADR-RES it was 13.4 µM (inactive); in the test with SF-539, 14.3 µM (inactive); in the test on MDA-N, 15.4 µM (inactive); with RXF 393, 5.32 µM (inactive); in the test on T47D, 2.13 µM (inactive). In addition, the GI50 with CCRF-CEM was 13.8 µM (inactive); in the test with SK-MEL-28 it was 14.5 µM (inactive); in the test with Malme-3M it was 10.8 µM (inactive); with Hs-578T, 14.5 µM (inactive); with NCI-H226, 10.9 µM (inactive); in the test on PC-3, 12.2 µM (inactive). Further, the GI50 is 20.3 µM (inactive) in the test with TK-10 and 10 µM (inactive) in the test on UO-31.

On to `Cc1cc(=O)n2nc(CN3CCCCC3)sc2n1`, for which the GI50 in the test on HCC 2998, in the test on SK-MEL-5, in the test with MCF7, in the test with SR, in the test with OVCAR-3 and with HL-60 was > 100 µM (inactive) in each case. The GI50 in the test with SK-OV-3, in the test on NCI/ADR-RES, in the test on SF-539, in the test with MDA-N, with RXF 393 and in the test with T47D was > 100 µM (inactive) throughout. For the same compound, the GI50 in the test with CCRF-CEM, in the test on SK-MEL-28, in the test on Malme-3M, with Hs-578T, in the test with NCI-H226 and with PC-3 was > 100 µM (inactive) throughout. Moreover, the GI50 in the test on TK-10 and in the test on UO-31 was > 100 µM (inactive) throughout.

With `O=C1Nc2ccccc2/C1=N/Nc1ccc([N+](=O)[O-])cc1`, the GI50 in the test with HCC 2998 was 70.5 µM (inactive); in the test on SK-MEL-5 it was 35.6 µM (inactive); with MCF7 it was 37.8 µM (inactive); in the test on SR, 1.46 µM (inactive); in the test on OVCAR-3 it was 13.6 µM (inactive); in the test on HL-60, 15.1 µM (inactive). Further, the GI50 with SK-OV-3 was 24.2 µM (inactive); in the test on NCI/ADR-RES, 15.4 µM (inactive); in the test on SF-539 it was 3.83 µM (inactive); in the test on MDA-N it was 68.5 µM (inactive); with RXF 393, 15 µM (inactive); with T47D, 7.62 µM (inactive). The GI50 was 22.4 µM (inactive) with CCRF-CEM; 41.3 µM (inactive) with SK-MEL-28; 17.4 µM (inactive) in the test with Malme-3M; 9.06 µM (inactive) in the test on Hs-578T; 19.1 µM (inactive) with NCI-H226; 27.4 µM (inactive) in the test on PC-3. The GI50 was 24 µM (inactive) in the test with TK-10 and 13.3 µM (inactive) in the test with UO-31.

Consider `COC(=O)c1c(C)nc(C)c(NO)c1-c1ccccc1C(F)(F)F`, for which the GI50 with HCC 2998 is > 100 µM (inactive); in the test on SK-MEL-5, 41.7 µM (inactive); with MCF7, 19.2 µM (inactive); with SR, 30.2 µM (inactive); in the test with OVCAR-3, 16.7 µM (inactive); in the test on HL-60, 5.41 µM (inactive). For the same compound, the GI50 was > 100 µM (inactive) with SK-OV-3; 18.2 µM (inactive) in the test with NCI/ADR-RES; 16 µM (inactive) with SF-539; 16.8 µM (inactive) in the test with MDA-N; 16.7 µM (inactive) with RXF 393; 28 µM (inactive) with T47D. The GI50 in the test on CCRF-CEM is 29.2 µM (inactive); in the test with SK-MEL-28, 20.4 µM (inactive); in the test with Malme-3M, 16.9 µM (inactive); in the test on Hs-578T it was 62.4 µM (inactive); in the test on NCI-H226, 20.2 µM (inactive); in the test with PC-3, 70.5 µM (inactive). Besides, the GI50 is 17.1 µM (inactive) in the test with TK-10 and 29.5 µM (inactive) in the test with UO-31.

On to `COc1ccc2c(NCCCCCCNc3c4ccccc4nc4cc(OC)ccc34)c3ccccc3nc2c1`, for which the 50% growth inhibitory concentration (GI50) with HCC 2998 is 0.135 µM (active); in the test with SK-MEL-5, 1.01 µM (active); in the test with MCF7, 0.0475 µM (active); in the test on SR, 0.0185 µM (active); in the test with OVCAR-3, 0.162 µM (active); in the test on HL-60 it was 0.0923 µM (active). In addition, the GI50 is 0.245 µM (active) in the test on SK-OV-3; 2.72 µM (inactive) with NCI/ADR-RES; 0.0929 µM (active) in the test on SF-539; 0.142 µM (active) with MDA-N; 0.0834 µM (active) in the test with RXF 393; 0.421 µM (active) with T47D. Besides, the concentration for 50% growth inhibition (GI50) in the test with CCRF-CEM is 0.0447 µM (active); in the test with SK-MEL-28 it was 0.342 µM (active); in the test with Malme-3M, 0.427 µM (active); in the test on Hs-578T, 0.219 µM (active); in the test on NCI-H226, 0.212 µM (active); with PC-3 it was 0.0885 µM (active). Moreover, the GI50 is 0.385 µM (active) in the test on TK-10 and 12.9 µM (inactive) with UO-31.

`Cc1nc2ccccc2nc1-c1ccc(/N=[N+](\[O-])c2ccc(-c3nc4ccccc4nc3C)cc2)cc1`: the GI50 with HCC 2998 was > 100 µM (inactive); in the test on SK-MEL-5 it was > 96.4 µM (inactive); with MCF7, > 100 µM (inactive); in the test with SR, > 100 µM (inactive); in the test on OVCAR-3, > 100 µM (inactive); in the test on HL-60, > 100 µM (inactive). Moreover, the GI50 with SK-OV-3 was 30.8 µM (inactive); in the test with NCI/ADR-RES it was > 64.9 µM (inactive); in the test with SF-539 it was > 50.5 µM (inactive); in the test on MDA-N, > 100 µM (inactive); in the test with RXF 393 it was 28.8 µM (inactive); in the test on T47D, > 100 µM (inactive). The GI50 is > 100 µM (inactive) in the test with CCRF-CEM; > 100 µM (inactive) in the test on SK-MEL-28; 42.4 µM (inactive) in the test with Malme-3M; 27.5 µM (inactive) with Hs-578T; > 74.8 µM (inactive) in the test with NCI-H226; > 100 µM (inactive) with PC-3. The GI50 is 20.1 µM (inactive) with TK-10 and > 81.3 µM (inactive) in the test on UO-31.
